Test [1] deals with Sodium channel protein type 5 subunit alpha (Homo sapiens, UniProt Q14524). Format: functional, cell-based.
In test [2] the target is T1, Corticotropin-releasing factor receptor 1 (Homo sapiens, UniProt P34998).
T1 sequence (P34998 whole entry): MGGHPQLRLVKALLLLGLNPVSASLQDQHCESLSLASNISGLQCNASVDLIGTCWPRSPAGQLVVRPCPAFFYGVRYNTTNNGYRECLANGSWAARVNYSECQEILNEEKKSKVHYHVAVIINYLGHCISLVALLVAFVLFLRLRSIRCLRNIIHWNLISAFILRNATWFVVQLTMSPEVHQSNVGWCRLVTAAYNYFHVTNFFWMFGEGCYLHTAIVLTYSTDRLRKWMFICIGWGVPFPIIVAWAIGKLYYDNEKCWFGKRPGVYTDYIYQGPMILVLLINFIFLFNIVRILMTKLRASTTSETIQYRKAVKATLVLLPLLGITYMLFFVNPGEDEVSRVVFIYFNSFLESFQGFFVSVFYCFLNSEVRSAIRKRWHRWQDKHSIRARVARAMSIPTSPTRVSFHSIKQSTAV

In test [3] the target is Voltage-dependent N-type calcium channel subunit alpha-1B (Rattus norvegicus, UniProt Q02294). The format is functional.
Voltage-dependent N-type calcium channel subunit alpha-1B, sequence (Q02294 whole entry): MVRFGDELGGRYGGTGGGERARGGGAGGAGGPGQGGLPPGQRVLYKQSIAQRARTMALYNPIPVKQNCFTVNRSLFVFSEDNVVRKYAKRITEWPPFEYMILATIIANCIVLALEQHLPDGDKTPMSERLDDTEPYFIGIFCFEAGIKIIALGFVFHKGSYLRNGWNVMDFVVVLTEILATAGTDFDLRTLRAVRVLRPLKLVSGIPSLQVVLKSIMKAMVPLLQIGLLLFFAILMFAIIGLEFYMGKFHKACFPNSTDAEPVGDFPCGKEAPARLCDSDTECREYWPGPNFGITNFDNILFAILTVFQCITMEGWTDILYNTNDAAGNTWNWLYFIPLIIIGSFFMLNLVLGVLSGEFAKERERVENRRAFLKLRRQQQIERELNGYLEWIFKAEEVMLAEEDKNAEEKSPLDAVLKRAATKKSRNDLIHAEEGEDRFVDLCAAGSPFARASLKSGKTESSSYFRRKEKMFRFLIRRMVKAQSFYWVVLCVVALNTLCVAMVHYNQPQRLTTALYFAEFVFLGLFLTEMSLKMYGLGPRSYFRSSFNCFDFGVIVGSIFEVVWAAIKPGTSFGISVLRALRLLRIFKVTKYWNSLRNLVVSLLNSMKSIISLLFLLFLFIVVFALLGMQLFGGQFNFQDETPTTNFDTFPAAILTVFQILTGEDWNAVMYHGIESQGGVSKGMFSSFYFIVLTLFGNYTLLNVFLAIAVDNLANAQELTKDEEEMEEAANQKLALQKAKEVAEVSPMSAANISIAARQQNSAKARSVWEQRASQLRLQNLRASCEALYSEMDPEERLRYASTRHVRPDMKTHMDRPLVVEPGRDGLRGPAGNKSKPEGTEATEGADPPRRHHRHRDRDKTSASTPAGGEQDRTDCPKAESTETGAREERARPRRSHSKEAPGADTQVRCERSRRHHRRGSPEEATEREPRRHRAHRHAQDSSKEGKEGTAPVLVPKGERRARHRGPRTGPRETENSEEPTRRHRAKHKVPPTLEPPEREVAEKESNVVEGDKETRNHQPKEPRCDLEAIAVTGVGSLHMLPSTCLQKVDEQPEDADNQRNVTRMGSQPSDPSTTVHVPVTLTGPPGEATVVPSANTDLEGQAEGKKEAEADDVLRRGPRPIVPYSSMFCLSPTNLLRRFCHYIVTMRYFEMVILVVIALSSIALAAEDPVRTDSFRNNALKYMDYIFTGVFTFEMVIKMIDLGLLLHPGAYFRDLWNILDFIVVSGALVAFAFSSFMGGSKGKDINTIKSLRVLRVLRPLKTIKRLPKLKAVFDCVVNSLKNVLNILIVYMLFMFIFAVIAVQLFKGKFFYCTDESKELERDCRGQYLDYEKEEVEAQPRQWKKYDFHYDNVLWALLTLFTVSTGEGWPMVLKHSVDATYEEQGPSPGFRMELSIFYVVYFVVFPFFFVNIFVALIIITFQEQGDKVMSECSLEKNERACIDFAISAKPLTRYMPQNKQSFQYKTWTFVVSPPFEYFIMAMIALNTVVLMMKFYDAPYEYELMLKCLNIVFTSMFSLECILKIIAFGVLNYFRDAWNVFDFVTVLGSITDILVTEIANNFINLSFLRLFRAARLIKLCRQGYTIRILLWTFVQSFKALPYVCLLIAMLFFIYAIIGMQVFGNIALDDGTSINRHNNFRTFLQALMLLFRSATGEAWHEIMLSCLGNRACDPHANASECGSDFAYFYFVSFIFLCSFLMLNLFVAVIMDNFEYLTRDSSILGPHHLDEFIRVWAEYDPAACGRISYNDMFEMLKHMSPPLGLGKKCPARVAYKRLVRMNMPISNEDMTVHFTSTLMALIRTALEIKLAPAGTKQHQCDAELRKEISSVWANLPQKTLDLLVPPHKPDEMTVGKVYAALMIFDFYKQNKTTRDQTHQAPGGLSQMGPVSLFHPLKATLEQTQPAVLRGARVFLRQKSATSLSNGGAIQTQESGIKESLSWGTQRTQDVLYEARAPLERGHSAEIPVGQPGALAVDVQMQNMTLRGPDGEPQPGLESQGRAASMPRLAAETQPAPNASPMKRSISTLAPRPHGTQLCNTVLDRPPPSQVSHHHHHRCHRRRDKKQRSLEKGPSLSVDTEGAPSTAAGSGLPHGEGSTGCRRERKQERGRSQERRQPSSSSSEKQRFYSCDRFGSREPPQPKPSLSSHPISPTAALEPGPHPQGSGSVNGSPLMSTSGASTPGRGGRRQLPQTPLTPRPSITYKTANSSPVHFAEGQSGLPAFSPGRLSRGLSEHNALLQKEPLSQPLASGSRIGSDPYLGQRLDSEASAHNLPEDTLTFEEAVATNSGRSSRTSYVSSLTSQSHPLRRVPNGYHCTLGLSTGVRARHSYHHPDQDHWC
For test [4], the target named is T2, B1 bradykinin receptor (Homo sapiens, UniProt P46663).
T2 sequence (P46663 whole entry): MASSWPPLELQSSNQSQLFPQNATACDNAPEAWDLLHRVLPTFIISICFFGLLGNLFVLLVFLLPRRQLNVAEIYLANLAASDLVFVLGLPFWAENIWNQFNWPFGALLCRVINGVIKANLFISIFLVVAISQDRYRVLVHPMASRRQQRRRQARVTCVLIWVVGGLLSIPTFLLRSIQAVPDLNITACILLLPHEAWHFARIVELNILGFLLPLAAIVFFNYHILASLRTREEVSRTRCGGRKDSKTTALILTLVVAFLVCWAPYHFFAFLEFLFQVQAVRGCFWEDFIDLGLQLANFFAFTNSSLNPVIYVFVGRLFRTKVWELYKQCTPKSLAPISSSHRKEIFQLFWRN

Test [5] has as its target T3, Endothelin receptor type B (Homo sapiens, UniProt P24530).
T3 sequence (P24530 whole entry): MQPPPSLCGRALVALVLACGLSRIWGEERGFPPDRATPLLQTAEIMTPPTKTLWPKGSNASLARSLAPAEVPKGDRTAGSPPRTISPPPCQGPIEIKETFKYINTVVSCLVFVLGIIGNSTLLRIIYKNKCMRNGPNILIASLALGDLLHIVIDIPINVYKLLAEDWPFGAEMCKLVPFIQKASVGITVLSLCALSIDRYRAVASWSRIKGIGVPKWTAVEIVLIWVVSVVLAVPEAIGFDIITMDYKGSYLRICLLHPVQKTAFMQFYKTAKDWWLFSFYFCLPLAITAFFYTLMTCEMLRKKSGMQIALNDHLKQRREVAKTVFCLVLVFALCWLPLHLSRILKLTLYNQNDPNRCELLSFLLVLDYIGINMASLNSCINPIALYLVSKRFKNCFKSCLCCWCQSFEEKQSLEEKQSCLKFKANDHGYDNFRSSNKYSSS

Test [6] addresses Histamine H2 receptor (Homo sapiens, UniProt P25021).
The target of test [7] is T4, Gastric inhibitory polypeptide receptor (Homo sapiens, UniProt P48546).
T4 sequence (P48546 whole entry): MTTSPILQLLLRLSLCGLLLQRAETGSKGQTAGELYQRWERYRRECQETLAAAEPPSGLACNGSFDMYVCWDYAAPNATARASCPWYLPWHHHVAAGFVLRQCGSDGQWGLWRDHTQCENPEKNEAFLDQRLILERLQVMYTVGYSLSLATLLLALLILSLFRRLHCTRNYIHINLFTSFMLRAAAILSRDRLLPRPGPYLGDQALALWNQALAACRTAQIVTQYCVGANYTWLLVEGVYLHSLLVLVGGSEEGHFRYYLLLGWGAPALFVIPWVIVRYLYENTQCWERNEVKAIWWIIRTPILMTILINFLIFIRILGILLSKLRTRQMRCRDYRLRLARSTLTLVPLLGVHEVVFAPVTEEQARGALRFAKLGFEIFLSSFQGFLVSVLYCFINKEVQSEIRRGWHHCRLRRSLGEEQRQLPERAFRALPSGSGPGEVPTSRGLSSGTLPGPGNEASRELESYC

In test [8] the target is Synaptic vesicular amine transporter (Rattus norvegicus, UniProt Q01827). The format is functional.
Synaptic vesicular amine transporter, sequence (Q01827 whole entry): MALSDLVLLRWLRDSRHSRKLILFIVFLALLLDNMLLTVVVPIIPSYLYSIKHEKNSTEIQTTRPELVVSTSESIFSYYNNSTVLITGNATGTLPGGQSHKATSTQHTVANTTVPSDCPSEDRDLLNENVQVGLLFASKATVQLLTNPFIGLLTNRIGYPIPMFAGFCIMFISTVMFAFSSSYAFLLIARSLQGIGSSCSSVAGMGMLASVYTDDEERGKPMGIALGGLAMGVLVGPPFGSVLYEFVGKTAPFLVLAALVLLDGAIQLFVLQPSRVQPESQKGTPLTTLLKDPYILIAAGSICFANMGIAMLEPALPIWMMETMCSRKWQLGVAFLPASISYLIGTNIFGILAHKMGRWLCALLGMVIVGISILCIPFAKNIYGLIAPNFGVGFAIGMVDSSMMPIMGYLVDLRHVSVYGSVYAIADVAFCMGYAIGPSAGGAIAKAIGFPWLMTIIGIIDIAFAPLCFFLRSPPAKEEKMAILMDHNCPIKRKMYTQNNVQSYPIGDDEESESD
For test [9], the target named is Gamma-aminobutyric acid receptor subunit alpha-1 (Rattus norvegicus, UniProt P62813).
Gamma-aminobutyric acid receptor subunit alpha-1, sequence (P62813 whole entry): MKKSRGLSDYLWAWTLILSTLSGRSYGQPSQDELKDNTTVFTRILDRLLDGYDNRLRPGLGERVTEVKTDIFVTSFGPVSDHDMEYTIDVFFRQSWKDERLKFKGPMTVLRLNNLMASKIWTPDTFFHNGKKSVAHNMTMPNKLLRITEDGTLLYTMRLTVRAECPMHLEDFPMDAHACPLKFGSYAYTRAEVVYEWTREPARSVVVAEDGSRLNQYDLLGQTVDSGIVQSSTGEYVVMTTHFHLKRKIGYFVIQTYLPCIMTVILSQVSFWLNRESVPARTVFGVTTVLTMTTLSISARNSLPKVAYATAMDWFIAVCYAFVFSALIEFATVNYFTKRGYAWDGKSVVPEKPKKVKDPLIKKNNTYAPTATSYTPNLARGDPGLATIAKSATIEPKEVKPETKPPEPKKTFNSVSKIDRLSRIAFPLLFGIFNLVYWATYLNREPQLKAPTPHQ
Test [10] has as its target T5, Glucocorticoid receptor (Homo sapiens, UniProt P04150).
T5 sequence (P04150 whole entry): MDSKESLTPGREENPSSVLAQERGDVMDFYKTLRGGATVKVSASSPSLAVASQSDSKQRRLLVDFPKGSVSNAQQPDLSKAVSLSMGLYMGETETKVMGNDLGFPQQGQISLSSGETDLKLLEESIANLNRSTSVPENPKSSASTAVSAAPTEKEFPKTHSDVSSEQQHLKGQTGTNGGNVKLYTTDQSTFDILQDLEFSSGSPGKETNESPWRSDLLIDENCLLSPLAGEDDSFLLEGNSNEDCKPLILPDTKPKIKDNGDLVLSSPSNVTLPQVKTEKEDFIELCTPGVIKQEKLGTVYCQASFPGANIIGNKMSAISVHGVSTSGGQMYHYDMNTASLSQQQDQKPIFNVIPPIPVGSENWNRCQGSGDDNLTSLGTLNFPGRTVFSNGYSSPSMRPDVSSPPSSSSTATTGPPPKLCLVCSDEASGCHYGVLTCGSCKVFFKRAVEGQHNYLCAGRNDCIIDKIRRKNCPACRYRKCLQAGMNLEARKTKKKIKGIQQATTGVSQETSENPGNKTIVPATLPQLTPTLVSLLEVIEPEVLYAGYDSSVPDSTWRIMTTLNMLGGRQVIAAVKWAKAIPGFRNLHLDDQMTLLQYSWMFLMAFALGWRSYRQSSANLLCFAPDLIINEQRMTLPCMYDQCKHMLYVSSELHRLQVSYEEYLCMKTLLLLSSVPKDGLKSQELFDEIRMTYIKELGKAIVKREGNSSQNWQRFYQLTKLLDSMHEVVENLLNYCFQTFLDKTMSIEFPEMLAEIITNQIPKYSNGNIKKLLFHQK
Format: functional.

For test [11], the target named is Gamma-aminobutyric acid receptor subunit alpha-1/alpha-2/beta-2/gamma-2 (Homo sapiens, UniProt P14867+P18507+P47869+P47870). Format: functional, cell-based.
In test [12] the target is T5, Glucocorticoid receptor. Format: functional. The source holds these as a separate data set.

Broadly, the AC50 is the concentration giving half of the maximal activity seen.
Further: assay procedure not described here.

Histamine H2 receptor, sequence (P25021 whole entry): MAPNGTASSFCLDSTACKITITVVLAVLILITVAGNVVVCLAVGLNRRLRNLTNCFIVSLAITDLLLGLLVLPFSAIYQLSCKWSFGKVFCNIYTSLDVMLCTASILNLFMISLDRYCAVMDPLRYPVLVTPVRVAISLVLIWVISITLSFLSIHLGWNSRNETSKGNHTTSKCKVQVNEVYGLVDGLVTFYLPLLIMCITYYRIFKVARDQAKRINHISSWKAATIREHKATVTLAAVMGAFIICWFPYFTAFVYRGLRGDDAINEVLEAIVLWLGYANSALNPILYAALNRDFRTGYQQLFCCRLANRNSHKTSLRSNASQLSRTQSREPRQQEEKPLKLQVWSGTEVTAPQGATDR

Consider `CCOC(=O)[C@H](CCc1ccccc1)N[C@@H](C)C(=O)N1CCC[C@H]1C(=O)O`, for which the AC50 is greater than 30 µM in test [1]; greater than 30 µM in test [2]; greater than 10 µM in [3]; greater than 30 µM in [4]; greater than 30 µM in [5]; greater than 10 µM in test [6]. This molecule came in with an AC50 in test [7] greater than 30 µM.
With `O=C1c2c(O)c(=O)ccn2N([C@@H]2c3ccccc3SCc3c2ccc(F)c3F)[C@@H]2COCCN12` [BALOXAVIR], the AC50 in test [1] is greater than 50 µM; in test [8] it was 22 µM; in test [9] it was greater than 30 µM.
On the same counts, the results for `CS(=O)(=O)c1ccc([C@@H](O)[C@@H](CO)NC(=O)C(Cl)Cl)cc1` [THIAMPHENICOL] are greater than 50 µM, greater than 30 µM and greater than 30 µM.
On to `CCC[C@@H]1C[C@@H](C(=O)N[C@@H]([C@H]2O[C@H](SC)[C@H](O)[C@@H](O)[C@H]2O)[C@H](C)Cl)N(C)C1` [CLINDAMYCIN], for which the AC50 was greater than 30 µM in [8]; greater than 30 µM in test [2]; greater than 10 µM in test [3]; greater than 30 µM in [4]; greater than 30 µM in [5]; greater than 10 µM in test [6]. The AC50 in test [7] was greater than 30 µM.
Consider `CN1CCCC(n2nc(Cc3ccc(Cl)cc3)c3ccccc3c2=O)CC1` (stereo not given) [AZELASTINE], for which the AC50 in test [10] was greater than 30 µM; in [11], 19 µM; in [12] it was greater than 30 µM.
On to `CC(C)OC(=O)[C@H](C)N[P@](=O)(OC[C@H]1O[C@@H](n2ccc(=O)[nH]c2=O)[C@](C)(F)[C@@H]1O)Oc1ccccc1` [SOFOSBUVIR], for which the AC50 was greater than 50 µM in test [1] and greater than 30 µM in test [8].
Regarding `CN1C(=O)CC(C)(c2ccccc2)C1=O` (stereo not given) [METHSUXIMIDE], the AC50 in [8] was greater than 30 µM.
For the molecule `CO/N=C(\C(=O)N[C@@H]1C(=O)N2C(C(=O)[O-])=C(C[N+]3(C)CCCC3)CS[C@H]12)c1csc(N)n1`, the results for the AC50 in test [10], in [11] and in test [12] were greater than 300 µM, greater than 2400 µM and greater than 300 µM, respectively.
In test [8], `CCOC(=O)c1ccc(O)cc1` [ETHYLPARABEN] came in with an AC50 of 22 µM.
For the molecule `CC(=O)c1ccc2c(c1)N(CCCN1CCN(CCO)CC1)c1ccccc1S2` [ACETOPHENAZINE], the half-maximal activity concentration (AC50) in test [10], in test [11] and in test [12] was greater than 30 µM in each case.
As to `CC(O)CO` (stereo not given) [PROPYLENE GLYCOL], in test [8], the AC50 is greater than 30 µM.
For the molecule `CC(C)NCC(O)COc1ccc(COCCOC(C)C)cc1` (stereo not given) [BISOPROLOL], the AC50 in test [1] is greater than 30 µM; in [2], greater than 30 µM; in test [3], greater than 10 µM; in test [4] it was greater than 30 µM; in test [5], greater than 30 µM; in test [6], greater than 10 µM. The molecule also came in with a concentration at half-maximal activity (AC50) in test [7] greater than 30 µM.
`Cc1ccc(C(=O)c2cc(O)c(O)c([N+](=O)[O-])c2)cc1` [TOLCAPONE]: the figures for the AC50 in test [10] and in test [12] were 14 µM and greater than 30 µM, respectively.
With `C#C[C@]1(O)CC[C@H]2[C@@H]3CCc4cc(O)ccc4[C@H]3CC[C@@]21C` [ETHINYL ESTRADIOL], the AC50 is greater than 30 µM in [1]; greater than 30 µM in test [2]; greater than 10 µM in test [3]; greater than 30 µM in [10]; greater than 30 µM in [4]; greater than 30 µM in test [9]. For the same molecule, the AC50 is greater than 30 µM in test [5], greater than 30 µM in test [12], greater than 10 µM in [6] and greater than 30 µM in test [7].
For the molecule `CN(CCOc1ccc(NS(C)(=O)=O)cc1)CCc1ccc(NS(C)(=O)=O)cc1` [DOFETILIDE], the AC50 was 1.7 µM in test [8]; greater than 30 µM in [2]; greater than 10 µM in [3]; greater than 30 µM in test [4]; greater than 30 µM in test [5]; greater than 10 µM in test [6]. In [7], the AC50 was greater than 30 µM.
For `OC[C@@H](O)[C@@H](O)[C@H](O)[C@H](O)CO` [MANNITOL], the AC50 in test [8] and in test [9] was greater than 30 µM throughout.
Turning to `CC[C@H](C)C(=O)O[C@H]1C[C@H](O)C=C2C=C[C@H](C)[C@H](CC[C@@H](O)C[C@@H](O)CC(=O)O)[C@H]21` [PRAVASTATIN], the AC50 in test [10] and in test [12] was greater than 30 µM throughout.
Regarding `CC(C)NNC(=O)c1ccncc1` [IPRONIAZID], the AC50 in test [10] and in test [12] was greater than 30 µM in each case.
Turning to `CCOC(=O)N[C@@H]1CC[C@@H]2[C@@H](C1)C[C@H]1C(=O)O[C@H](C)[C@H]1[C@H]2/C=C/c1ccc(-c2cccc(F)c2)cn1` [VORAPAXAR], the AC50 in test [1] was greater than 50 µM; in test [8], 1.3 µM.
In the case of `CC(=O)OC[C@H]1O[C@@H](n2ccc(=O)[nH]c2=O)[C@H](OC(C)=O)[C@@H]1OC(C)=O` [URIDINE TRIACETATE], the AC50 in test [8] and in test [9] was greater than 30 µM each time.
As to `CC(C)Cc1ccc(CC(=O)O)cc1` [IBUFENAC], the AC50 in test [10], in test [11] and in test [12] was greater than 30 µM each time.
Consider `CC(N)Cc1ccccc1` (stereo not given) [AMPHETAMINE], for which the AC50 is greater than 30 µM in test [2]; greater than 10 µM in [3]; greater than 30 µM in test [10]; greater than 30 µM in [4]; greater than 30 µM in test [11]; greater than 30 µM in test [5]. Further, the AC50 in test [12] and in test [7] was greater than 30 µM throughout.
For `COc1ccc2c(c1)C(=O)N(CCc1ccc(S(=O)(=O)NC(=O)NC3CCCCC3)cc1)C(=O)C2(C)C` [GLIQUIDONE], the AC50 was greater than 30 µM in test [10] and 8.9 µM in test [12].
Consider `O=C(COc1ccc(Cl)cc1)N1CCN(Cc2ccc3c(c2)OCO3)CC1` [FIPEXIDE], for which the AC50 in test [1] was greater than 50 µM; in test [8], 0.15 µM.

Source of the values: ChEMBL document CHEMBL5291721, “A preclinical secondary pharmacology resource illuminates target-adverse drug reaction associations of marketed drugs” (Nat Commun, 2023).
